Assay results reported in ChEMBL document CHEMBL1201862, “PubChem BioAssay data set” (2004).
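48-hour exposure; five concentrations; linearly interpolated endpoints. At the GI50, growth is halved.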 Active and inactive are the calls of the source. Cut-off read from the data, not from the text of the source: active = GI50 up to about 1.1 µM and inactive = higher.

Legend:
Experiment in all cases: DTP human tumour cell line panel, 48 h
[1] = tested on: ACHN
[2] = tested on: HCT-116
[3] = tested on: HL-60
[4] = tested on: HOP-62
[5] = tested on: HT-29
[6] = tested on: Hs-578T
[7] = tested on: M14
[8] = tested on: NCI-H226
[9] = tested on: NCI-H522
[10] = tested on: OVCAR-5
[11] = tested on: PC-3
[12] = tested on: SK-MEL-28
[13] = tested on: SK-MEL-2
[14] = tested on: SK-MEL-5
[15] = tested on: SN12C
[16] = tested on: TK-10
[17] = tested on: U-251
[18] = tested on: UO-31
[19] = tested on: MCF7
[20] = tested on: DU-145

Measured: GI50

NC(Cc1ccccc1)P(=O)(O)O (centres undefined)
inactive: [1] > 100 µM | [2] > 100 µM | [3] > 100 µM | [4] > 100 µM | [5] > 100 µM | [6] > 100 µM | [7] > 100 µM | [8] > 100 µM | [9] > 100 µM | [10] > 100 µM | [11] > 100 µM | [12] > 100 µM | [13] > 100 µM | [14] > 100 µM | [15] > 100 µM | [16] > 100 µM | [17] > 100 µM | [18] > 100 µM

O=S(=O)([C-]([I+]c1ccccc1)S(=O)(=O)C(F)(F)C(F)(F)C(F)(F)C(F)(F)F)C(F)(F)C(F)(F)C(F)(F)C(F)(F)F
inactive: [1] 6.49 µM | [3] 4.67 µM | [4] 16.8 µM | [5] 17.4 µM | [6] 20.1 µM | [7] 13.6 µM | [19] 6.05 µM | [8] 3.97 µM | [9] 2.49 µM | [10] 17.2 µM | [11] 17.2 µM | [12] 15.8 µM | [14] 14.4 µM | [16] 16.3 µM | [17] 14.4 µM | [18] 13.2 µM

O=c1c2ccccc2c2ccccc2c(=O)n1-c1cc2c3ccccc3ccc2c2ccccc12
inactive: [1] > 100 µM | [20] > 100 µM | [2] > 100 µM | [4] > 100 µM | [5] > 100 µM | [6] > 100 µM | [7] > 100 µM | [19] 91.8 µM | [8] > 100 µM | [9] > 100 µM | [10] > 100 µM | [11] > 100 µM | [12] > 100 µM | [13] > 100 µM | [14] > 100 µM | [15] 84.5 µM | [16] > 100 µM | [17] > 100 µM | [18] > 100 µM

O=S(=O)(Nc1nc2ccccc2nc1Nc1cccc2ccccc12)c1ccccc1
inactive: [1] 8 µM | [20] > 100 µM | [2] 17.7 µM | [4] 13.9 µM | [6] 21.1 µM | [7] 62.4 µM | [19] > 100 µM | [8] 40.6 µM | [10] > 100 µM | [11] 6.46 µM | [12] 25.9 µM | [13] 18.9 µM | [14] 10.7 µM | [15] > 100 µM | [16] 8.93 µM | [17] 5.52 µM | [18] 2.43 µM

OCCCCn1cc(Cn2ncc3c(SCc4ccccc4)ncnc32)nn1
inactive: [1] 67.6 µM | [20] 58.5 µM | [2] 33.6 µM | [4] 44.1 µM | [5] 40.5 µM | [6] 26 µM | [7] 29.9 µM | [19] 57 µM | [8] 93.5 µM | [9] 29.2 µM | [10] > 100 µM | [11] 61.2 µM | [12] 51.2 µM | [13] 76.7 µM | [14] 21.7 µM | [15] 63 µM | [16] > 100 µM | [17] 39.2 µM | [18] 31.1 µM

CN1c2ccccc2C(=O)NC12CCN(Cc1ccccc1)CC2
inactive: [1] 31.2 µM | [20] 71.6 µM | [2] 44.9 µM | [3] 30.5 µM | [4] 54.7 µM | [5] 27.6 µM | [6] 36.7 µM | [7] 33.4 µM | [19] 46 µM | [8] 27.5 µM | [10] > 100 µM | [12] 73.8 µM | [14] 54.8 µM | [15] 49.4 µM | [16] 41 µM | [17] 40.1 µM | [18] 34.6 µM

O=C(CCCCCCCCC(=O)N1C(=O)CC(=O)N(c2ccccc2)C1=S)N1C(=O)CC(=O)N(c2ccccc2)C1=S
inactive: [1] > 100 µM | [20] > 100 µM | [2] > 100 µM | [4] > 100 µM | [5] > 100 µM | [6] > 100 µM | [7] > 100 µM | [19] > 100 µM | [9] > 100 µM | [10] > 100 µM | [11] > 100 µM | [13] > 100 µM | [14] > 100 µM | [15] > 100 µM | [16] > 100 µM | [17] > 100 µM | [18] > 100 µM

O=C(C[N+]12CN3CN(CN(C3)C1)C2)c1ccc(-c2ccccc2)cc1
inactive: [1] 21.4 µM | [20] 17.6 µM | [2] 18.8 µM | [4] 23 µM | [5] 22.5 µM | [6] 32.7 µM | [7] 21.7 µM | [8] 21.2 µM | [9] 19.3 µM | [10] 18.6 µM | [11] 16 µM | [12] 17.6 µM | [13] 18.3 µM | [14] 16.4 µM | [15] 19.7 µM | [16] 21.2 µM | [17] 16.8 µM | [18] 23.4 µM

CC1(C)C(CCO)CC1n1cc(I)c(=O)[nH]c1=O (centres undefined)
inactive: [1] > 100 µM | [20] > 100 µM | [2] > 100 µM | [4] > 100 µM | [6] 90.6 µM | [7] > 100 µM | [19] > 100 µM | [8] > 100 µM | [10] > 100 µM | [11] > 100 µM | [12] > 100 µM | [13] > 100 µM | [14] > 100 µM | [15] > 100 µM | [16] > 100 µM | [17] 75.3 µM | [18] > 100 µM

Cc1cc(Cl)nc2ccc(Cc3ccc4nc(Cl)cc(C)c4c3)cc12
inactive: [1] 16 µM | [20] > 100 µM | [2] 22.8 µM | [4] 18.5 µM | [5] 68.5 µM | [6] 36.3 µM | [7] 85.3 µM | [19] 19.1 µM | [8] 93.3 µM | [9] 24.2 µM | [10] > 100 µM | [11] 42.7 µM | [12] > 100 µM | [13] 47.5 µM | [14] 23.8 µM | [15] 85.1 µM | [16] 20.7 µM | [17] 16.2 µM | [18] 37.6 µM

NCCCCCNOCCCN
inactive: [1] > 100 µM | [20] > 100 µM | [2] > 100 µM | [3] > 100 µM | [4] > 100 µM | [5] > 100 µM | [6] > 100 µM | [7] > 100 µM | [8] > 100 µM | [9] > 100 µM | [10] > 100 µM | [11] > 100 µM | [12] > 100 µM | [13] > 100 µM | [14] > 100 µM | [15] > 100 µM | [16] > 100 µM | [17] > 100 µM | [18] > 100 µM

CO[C@]12C#CC=CC#C[C@@H](O)[C@]3(CCC1)O[C@@]23c1cccc(O)c1
inactive: [1] > 100 µM | [20] > 100 µM | [2] > 100 µM | [4] 79.3 µM | [6] > 100 µM | [7] > 100 µM | [19] > 100 µM | [8] > 100 µM | [10] > 100 µM | [11] > 100 µM | [12] > 100 µM | [13] > 100 µM | [15] > 100 µM | [16] > 100 µM | [17] > 100 µM | [18] > 100 µM

COc1cc(C(c2cc3c(cc2O)OCO3)N2CCCC2)cc(OC)c1OC (centres undefined)
inactive: [1] 15.4 µM | [20] 19.3 µM | [2] 15.4 µM | [3] 2.07 µM | [4] 30.5 µM | [5] 10.4 µM | [7] 24.5 µM | [19] 26.9 µM | [8] 17.4 µM | [9] 3.35 µM | [10] 25.9 µM | [11] 17.3 µM | [12] 23.3 µM | [13] 19.6 µM | [14] 16.4 µM | [15] 12.2 µM | [16] 20.2 µM | [17] 16.9 µM | [18] 14.8 µM

O=C1CCCCCCCCCCC1CCCCCBr (centres undefined)
inactive: [1] 27.4 µM | [20] 28.7 µM | [2] 17 µM | [4] 29.2 µM | [5] 25.9 µM | [6] 46.8 µM | [7] 33 µM | [19] 37 µM | [8] 20.8 µM | [9] 19.6 µM | [10] 25.1 µM | [11] 31.2 µM | [12] 19.9 µM | [13] 16.9 µM | [14] 15.3 µM | [15] 22.3 µM | [16] 44 µM | [17] 20 µM | [18] 26.1 µM

N/N=C1\C(OC(=O)Nc2ccccc2)=Nc2ccccc21
inactive: [1] 15.1 µM | [20] 10.8 µM | [2] 14.2 µM | [4] 18.6 µM | [5] 30.5 µM | [6] 36.2 µM | [7] 13.4 µM | [19] 9.93 µM | [8] 16.8 µM | [9] 13.7 µM | [10] 45.1 µM | [11] 15.4 µM | [12] 60 µM | [13] 19.7 µM | [14] 14.2 µM | [15] 19.2 µM | [16] 23 µM | [17] 16 µM | [18] 12.7 µM
